Measured values published in publication PMC12097374 (Bioconjugate chemistry, 2017).

Tests used:
C6 rat glioma cells = assay: Confocal cell imaging and displacement in live C6 rat glioma cells; format: cell-based; settings: 0.1 μM probe 29, 100-fold higher concentration (10 μM) of competitor
TSPO = TSPO (Rattus norvegicus, UniProt P16257); settings: cited from earlier work

SMILES | displacement of fluorescent probe 29 in C6 glioma cells (C6 rat glioma cells) | fold enhancement in affinity compared with DPA-714 (TSPO)
CCc1cc(CC)n2nc(-c3ccc(OCCF)cc3)c(CC(=O)N(CC)CC)c2n1 [VUIIS 1008, 2-(5,7-diethyl-2-(4-(2-fluoroethoxy)phenyl)-pyrazolo[1,5-a]pyrimidin-3-yl)-N,N-diethylacetamide] | completely displaced | 36 fold
CCC(C)N(C)C(=O)c1cc2ccccc2c(-c2ccccc2Cl)n1 (stereo not drawn) [PK 11195] | completely displaced | –
